Drawing on ChEMBL document CHEMBL1142734, “Biological properties of D- and L-1-deoxyazasugars” (J Med Chem, 2005), this text covers IC50, inhibition and Ki for 12 molecules.

For assay [1], the target named is T1, Cytosolic beta-glucosidase (Homo sapiens, UniProt Q9H227).
T1 sequence (Q9H227 whole entry): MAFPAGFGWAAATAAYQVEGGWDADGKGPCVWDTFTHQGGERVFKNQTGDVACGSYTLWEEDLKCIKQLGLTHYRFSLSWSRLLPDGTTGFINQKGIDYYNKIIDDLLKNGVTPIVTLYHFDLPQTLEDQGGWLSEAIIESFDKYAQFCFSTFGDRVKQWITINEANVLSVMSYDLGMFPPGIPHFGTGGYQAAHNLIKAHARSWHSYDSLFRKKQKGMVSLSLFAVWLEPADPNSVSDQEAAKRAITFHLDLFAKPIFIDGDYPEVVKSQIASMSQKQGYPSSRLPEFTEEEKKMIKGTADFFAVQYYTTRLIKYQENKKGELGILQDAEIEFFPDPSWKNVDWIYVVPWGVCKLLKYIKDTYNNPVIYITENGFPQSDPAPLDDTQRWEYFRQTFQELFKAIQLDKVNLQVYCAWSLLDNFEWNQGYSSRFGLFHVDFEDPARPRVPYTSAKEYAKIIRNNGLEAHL
Briefly: Inhibitory concentration against human beta-glucosidase.

Assay [2] concerns the target T1, Cytosolic beta-glucosidase. Briefly: Inhibitory concentration against beta-glucosidase.
The target of assay [3] is T2, Alpha-galactosidase A (Homo sapiens) (UniProt P06280).
T2 sequence (whole entry): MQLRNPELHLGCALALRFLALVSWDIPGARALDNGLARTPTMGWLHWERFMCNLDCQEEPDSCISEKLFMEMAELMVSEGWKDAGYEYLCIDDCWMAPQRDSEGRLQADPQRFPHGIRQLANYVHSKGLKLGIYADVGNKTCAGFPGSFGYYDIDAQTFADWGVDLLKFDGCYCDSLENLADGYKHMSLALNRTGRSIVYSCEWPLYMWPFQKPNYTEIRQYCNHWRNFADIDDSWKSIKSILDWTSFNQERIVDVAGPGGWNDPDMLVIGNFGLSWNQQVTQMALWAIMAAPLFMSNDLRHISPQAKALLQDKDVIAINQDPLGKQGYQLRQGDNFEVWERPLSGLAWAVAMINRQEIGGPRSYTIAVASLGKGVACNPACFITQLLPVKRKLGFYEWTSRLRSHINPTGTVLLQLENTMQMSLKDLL
The conditions noted are these: 1000 uM.

For assay [4], the target named is T3, Beta-galactosidase (Rattus norvegicus) (UniProt D3ZUM4).
T3 sequence (whole entry): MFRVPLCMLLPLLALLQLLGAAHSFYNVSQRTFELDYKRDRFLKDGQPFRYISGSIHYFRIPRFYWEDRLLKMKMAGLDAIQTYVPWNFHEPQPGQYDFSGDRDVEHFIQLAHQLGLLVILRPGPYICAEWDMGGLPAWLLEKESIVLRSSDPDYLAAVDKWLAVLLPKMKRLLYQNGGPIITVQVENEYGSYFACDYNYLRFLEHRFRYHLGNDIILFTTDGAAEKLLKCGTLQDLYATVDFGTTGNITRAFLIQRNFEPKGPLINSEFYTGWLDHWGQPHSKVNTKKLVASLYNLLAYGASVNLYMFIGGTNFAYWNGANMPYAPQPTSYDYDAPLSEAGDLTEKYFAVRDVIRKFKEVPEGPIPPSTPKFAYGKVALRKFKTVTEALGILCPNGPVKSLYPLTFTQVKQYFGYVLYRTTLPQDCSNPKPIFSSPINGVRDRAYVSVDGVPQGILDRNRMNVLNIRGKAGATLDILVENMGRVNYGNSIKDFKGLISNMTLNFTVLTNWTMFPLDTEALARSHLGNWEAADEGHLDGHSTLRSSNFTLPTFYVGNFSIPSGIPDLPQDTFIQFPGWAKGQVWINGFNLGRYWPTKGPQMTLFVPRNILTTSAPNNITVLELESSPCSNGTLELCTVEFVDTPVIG
Briefly: Percent inhibition of beta galactosidase of rat epididymis at 1000 uM.

Assay [5] addresses T4, Cytosolic beta-glucosidase (Homo sapiens) (UniProt Q9H227).
T4 sequence (whole entry): T1 sequence (Q9H227 whole entry)
The conditions noted are these: 1000 uM.

Assay [6] concerns the target T5, Tissue alpha-L-fucosidase (Bos taurus, UniProt Q2KIM0).
T5 sequence (Q2KIM0 whole entry): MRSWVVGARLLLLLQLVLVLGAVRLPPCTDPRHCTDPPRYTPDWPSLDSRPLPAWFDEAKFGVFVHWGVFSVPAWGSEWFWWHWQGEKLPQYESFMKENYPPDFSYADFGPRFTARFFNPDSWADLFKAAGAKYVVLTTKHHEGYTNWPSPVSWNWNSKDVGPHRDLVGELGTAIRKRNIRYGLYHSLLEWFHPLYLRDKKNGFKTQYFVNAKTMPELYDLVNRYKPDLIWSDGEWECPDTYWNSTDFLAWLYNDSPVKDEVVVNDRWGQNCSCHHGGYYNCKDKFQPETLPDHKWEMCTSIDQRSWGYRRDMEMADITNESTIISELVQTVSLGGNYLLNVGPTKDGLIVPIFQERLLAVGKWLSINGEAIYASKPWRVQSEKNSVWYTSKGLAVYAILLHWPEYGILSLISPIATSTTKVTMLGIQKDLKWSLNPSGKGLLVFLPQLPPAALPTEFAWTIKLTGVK
In words: Ki value against bovine alpha-L-fucosidase.

In assay [7] the target is Alpha-galactosidase (Coffea arabica) (UniProt Q5DUH8). The conditions noted are these: 1000 uM.
Chain of Alpha-galactosidase (Coffea arabica) (Q5DUH8 as listed by the source): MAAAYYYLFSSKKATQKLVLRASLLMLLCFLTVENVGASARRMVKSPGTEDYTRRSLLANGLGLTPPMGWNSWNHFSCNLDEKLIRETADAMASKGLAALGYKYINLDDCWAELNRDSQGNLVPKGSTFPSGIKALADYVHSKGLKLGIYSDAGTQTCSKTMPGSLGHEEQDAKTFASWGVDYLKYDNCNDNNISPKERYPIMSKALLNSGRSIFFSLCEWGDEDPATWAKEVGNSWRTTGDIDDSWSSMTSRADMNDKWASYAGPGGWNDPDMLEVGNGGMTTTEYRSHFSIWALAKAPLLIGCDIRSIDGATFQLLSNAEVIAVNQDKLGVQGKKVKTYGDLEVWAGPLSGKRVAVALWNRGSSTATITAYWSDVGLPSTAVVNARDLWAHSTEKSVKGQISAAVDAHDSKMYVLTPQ
Assay [8] has as its target T5, Tissue alpha-L-fucosidase. Briefly: Inhibitory concentration against alpha-L-fucosidase of bovine epididymis.
Assay [9] deals with T6, Alpha-galactosidase C (Aspergillus niger, UniProt Q9UUZ4).
T6 sequence (Q9UUZ4 whole entry): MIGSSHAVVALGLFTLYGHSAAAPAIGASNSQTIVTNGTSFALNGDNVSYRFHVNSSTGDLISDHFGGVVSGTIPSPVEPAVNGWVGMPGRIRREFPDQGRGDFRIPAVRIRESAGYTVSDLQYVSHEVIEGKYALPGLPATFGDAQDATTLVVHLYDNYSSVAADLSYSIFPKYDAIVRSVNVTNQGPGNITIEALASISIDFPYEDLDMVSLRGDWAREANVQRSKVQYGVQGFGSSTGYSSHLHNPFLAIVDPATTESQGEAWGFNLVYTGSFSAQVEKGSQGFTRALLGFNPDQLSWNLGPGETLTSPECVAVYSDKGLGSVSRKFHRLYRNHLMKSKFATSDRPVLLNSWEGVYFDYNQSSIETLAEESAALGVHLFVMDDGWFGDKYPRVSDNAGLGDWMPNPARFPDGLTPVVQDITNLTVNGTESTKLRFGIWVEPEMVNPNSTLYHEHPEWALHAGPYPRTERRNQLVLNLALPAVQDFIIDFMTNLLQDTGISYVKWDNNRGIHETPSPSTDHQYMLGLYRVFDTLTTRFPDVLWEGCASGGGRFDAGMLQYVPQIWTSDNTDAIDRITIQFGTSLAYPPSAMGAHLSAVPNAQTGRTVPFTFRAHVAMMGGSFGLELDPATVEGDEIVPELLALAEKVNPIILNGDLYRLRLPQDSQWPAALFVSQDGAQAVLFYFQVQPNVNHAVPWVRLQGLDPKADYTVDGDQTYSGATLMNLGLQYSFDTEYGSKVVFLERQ
In words: Inhibitory concentration against alpha-galactosidase of Aspergillus niger.

Assay [10] deals with T5, Tissue alpha-L-fucosidase. In words: Inhibitory concentration against bovine alpha-L-fucosidase.

The term IC50 denotes the concentration at which inhibition is half-maximal. Turning to `OC[C@H]1NC[C@@H](O)[C@H](O)[C@H]1O`, the IC50 in assay [1] stood at 66 µM; in assay [2] it was 60 µM.

The inhibition is the change of the read-out against control, counted positive when it falls. The low end stands for a weak effect, the high end for a strong effect. For the molecule `OC[C@H]1NC[C@H](O)[C@@H](O)[C@@H]1O` [DUVOGLUSTAT], the inhibition in [3] and in assay [4] was less than 50% throughout. For the same molecule, the figures for the IC50 in assay [1] and in [2] were 240 µM and 80 µM, respectively.

The term Ki denotes the dissociation constant of the complex between target and ligand, obtained from inhibition or displacement. With `OC[C@@H]1NC[C@@H](O)[C@@H](O)[C@@H]1O`, the inhibition in [5], in [3] and in assay [7] was less than 50% throughout. In assay [6], the Ki worked out at 14 µM. Moreover, in assay [8], the IC50 was 156 µM.

In turn, `OC[C@H]1NC[C@H](O)[C@H](O)[C@H]1O` came in with an inhibition in assay [5] of less than 50%.

`OC[C@H]1NC[C@H](O)[C@@H](O)[C@H]1O` displayed an inhibition in assay [5] of less than 50%. Further, the IC50 in assay [9] is 1.8 µM.

For the molecule `OC[C@@H]1NC[C@@H](O)[C@@H](O)[C@H]1O`, the inhibition in assay [5] and in assay [3] was less than 50% throughout.

Take `OC[C@@H]1NC[C@H](O)[C@@H](O)[C@@H]1O`: the inhibition in assay [5], in assay [3] and in assay [7] was less than 50% each time.

As for `OC[C@@H]1NC[C@@H](O)[C@H](O)[C@@H]1O`, in [5], the inhibition was less than 50%. In assay [6], this molecule had a Ki of 0.08 µM. Moreover, in assay [10], half-maximal inhibition (IC50) was put at 0.63 µM.

On to `OC[C@H]1NC[C@H](O)[C@H](O)[C@@H]1O`, for which the inhibition in assay [5] and in assay [3] was less than 50% in each case.

As for `OC[C@@H]1NC[C@@H](O)[C@H](O)[C@H]1O`, the inhibition in [5], in assay [3], in assay [4] and in [7] was less than 50% throughout. The IC50 in assay [2] is 980 µM.

In the case of `OC[C@H]1NC[C@@H](O)[C@@H](O)[C@@H]1O` [DEOXYMANNOJIRIMYCIN], the inhibition in assay [5], in [3] and in assay [7] was less than 50% in each case. Moreover, the inhibition constant Ki in [6] was 4.7 µM. Besides, the 50% inhibitory concentration (IC50) in [8] amounted to 39 µM.

Turning to `OC[C@@H]1NC[C@H](O)[C@H](O)[C@H]1O`, the inhibition in [5], in assay [3] and in assay [7] was less than 50% each time.
